IC50 and viability, T/C data for six molecules are collected here from PubChem BioAssay AID2060346 (Molecular Pharmacology Branch, DTP, NCI, 2025).

The subject of this test is CN0375-F725-PDC multi-cell spheroids, viability. As to the kind of experiment: Anticancer human tumor CN0375-F725-PDC patient-derived colon carcinoma cell line growth inhibition [TAK]. The following applies: for viability, T/C: stronger effect = lower value. In short, it runs like this:
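Drug combinations, each paired with TAK-243 or ipatasertib, were tested on multi-cell spheroids of 60% malignant cells, 25% HUVEC and 15% hMSC. Top concentrations were at or near the clinical Cmax (10 microM if undetermined), decreasing by half-log; viability is given as % test/control.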

[1] abbreviates: curve of first compound, second compound 0.3 µM.
The mark [2] stands for this setting: curve of first compound, second compound 0.949 µM.
Setting [3] is: curve of first compound, second compound 3 µM.
Setting [4] is: curve of first compound, second compound 9.49 µM.
The mark [5] stands for this setting: curve of first compound, second compound 30 µM.
Where [6] appears, read: second compound 0.3 µM, first compound 0.00316 µM.
[7] abbreviates: second compound 0.3 µM, first compound 0.01 µM.
Where [8] appears, read: second compound 0.3 µM, first compound 0.0316 µM.
Where [9] appears, read: second compound 0.3 µM, first compound 0.1 µM.
The mark [10] stands for this setting: second compound 0.3 µM, first compound 0.316 µM.
Setting [11] is: second compound 0.3 µM, first compound 1 µM.
The mark [12] stands for this setting: second compound 0.949 µM, first compound 0.00316 µM.
Setting [13] is: second compound 0.949 µM, first compound 0.01 µM.
Where [14] appears, read: second compound 0.949 µM, first compound 0.0316 µM.
Setting [15] is: second compound 0.949 µM, first compound 0.1 µM.
Where [16] appears, read: second compound 0.949 µM, first compound 0.316 µM.
[17] abbreviates: second compound 0.949 µM, first compound 1 µM.
The mark [18] stands for this setting: second compound 3 µM, first compound 0.00316 µM.
The mark [19] stands for this setting: second compound 3 µM, first compound 0.01 µM.
The mark [20] stands for this setting: second compound 3 µM, first compound 0.0316 µM.
Where [21] appears, read: second compound 3 µM, first compound 0.1 µM.
The mark [22] stands for this setting: second compound 3 µM, first compound 0.316 µM.
The mark [23] stands for this setting: second compound 3 µM, first compound 1 µM.
[24] abbreviates: second compound 9.49 µM, first compound 0.00316 µM.
[25] abbreviates: second compound 9.49 µM, first compound 0.01 µM.
Where [26] appears, read: second compound 9.49 µM, first compound 0.0316 µM.
[27] abbreviates: second compound 9.49 µM, first compound 0.1 µM.
[28] abbreviates: second compound 9.49 µM, first compound 0.316 µM.
Where [29] appears, read: second compound 9.49 µM, first compound 1 µM.
Setting [30] is: second compound 30 µM, first compound 0.00316 µM.
Where [31] appears, read: second compound 30 µM, first compound 0.01 µM.
[32] abbreviates: second compound 30 µM, first compound 0.0316 µM.
[33] abbreviates: second compound 30 µM, first compound 0.1 µM.
Setting [34] is: second compound 30 µM, first compound 0.316 µM.
[35] abbreviates: second compound 30 µM, first compound 1 µM.

Structures are written as SMILES. “And” between values parts separate entries of the source, which are not always exact repeats. Identical values can stand only once.
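Note: spheroids exposed to drugs for seven days.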
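Throughout, for viability, T/C: 100% = DMSO vehicle control wells.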

The term IC50 denotes the midpoint of a concentration-inhibition curve. The term viability, T/C denotes the ratio of treated to control. For `COc1c(OCCCN2CCOCC2)ccc2c3n(c(=NC(=O)c4cnc(N)nc4)nc12)CCN3` + CC(C)NCC(C(=O)N1CCN(c2ncnc3c2C(C)CC3O)CC1)c1ccc(Cl)cc1, the IC50 was found to be 0.247 µM under setting [1]; 0.211 µM under setting [2]; 0.206 µM under setting [3]; 0.154 µM under setting [4]; 0.0843 µM under setting [5]. Besides, the viability, T/C runs as follows: under setting [6], 103%; under setting [7], 88.3%; under setting [8], 81.1%; under setting [9], 61.7%; under setting [10], 45.6%; under setting [11], 34.7%. Moreover, the viability, T/C runs as follows: under setting [12], 100%; under setting [13], 91.8%; under setting [14], 80.1%; under setting [15], 61.3%; under setting [16], 42.7%; under setting [17], 37.6%. For the same molecule, the viability, T/C is 98.8% under setting [18]; 83.1% under setting [19]; 78.5% under setting [20]; 60.4% under setting [21]; 41.9% under setting [22]; 33% under setting [23]. The viability, T/C is, setting by setting: under setting [24], 92.7%; under setting [25], 80.2%; under setting [26], 69.9%; under setting [27], 55.5%; under setting [28], 40.4%; under setting [29], 34.8%. The viability, T/C under setting [30] is 76.2%; the viability, T/C under setting [31] is 70.5%; the viability, T/C under setting [32] is 62%; the viability, T/C under setting [33] was 47.8%; the viability, T/C under setting [34] is 37.5%; the viability, T/C under setting [35] was 32.6%.

Regarding `CC(C)CC(NC(=O)C(Cc1ccccc1)NC(=O)c1cnccn1)B(O)O` (stereo unspecified), the viability, T/C runs as follows: (compound 31.6 pM) 112% and 110%; (compound 0.0001 µM) 98.7% and 113%; (compound 0.000316 µM) 104% and 103%; (compound 0.001 µM) 109% and 105%; (compound 0.00316 µM) 103% and 106%; (compound 0.01 µM) 34.9% and 35.3%. The IC50 (curve of compound) was 0.00776 µM and 0.00787 µM.

`Cc1nc(NC(=O)N2CCCC2C(N)=O)sc1-c1ccnc(C(C)(C)C(F)(F)F)c1` (stereo unspecified) + CC(C)NCC(C(=O)N1CCN(c2ncnc3c2C(C)CC3O)CC1)c1ccc(Cl)cc1: the IC50 is greater than 10 µM under setting [1]; greater than 10 µM under setting [2]; greater than 10 µM under setting [3]; 9.46 µM under setting [4]; 4.99 µM under setting [5]. For the same molecule, the viability, T/C is, setting by setting: under setting [8], 102%; under setting [9], 95.6%; under setting [10], 89.5%; under setting [11], 82.1%; (second compound 0.3 µM, first compound 3.16 µM) 74.4%; (second compound 0.3 µM, first compound 10 µM) 52.5%. The viability, T/C runs as follows: under setting [14], 101%; under setting [15], 97.7%; under setting [16], 94.4%; under setting [17], 88.7%; (second compound 0.949 µM, first compound 3.16 µM) 74.3%; (second compound 0.949 µM, first compound 10 µM) 57.9%. For the same molecule, the viability, T/C by setting is: under setting [20], 98.6%; under setting [21], 98.4%; under setting [22], 86.7%; under setting [23], 81.8%; (second compound 3 µM, first compound 3.16 µM) 71.7%; (second compound 3 µM, first compound 10 µM) 51.6%. Further, the viability, T/C reads like this: under setting [26], 89.4%; under setting [27], 94.5%; under setting [28], 88.1%; under setting [29], 79.5%; (second compound 9.49 µM, first compound 3.16 µM) 66.7%; (second compound 9.49 µM, first compound 10 µM) 49%. The viability, T/C under setting [32] is 80%; the viability, T/C under setting [33] was 82%; the viability, T/C under setting [34] was 71.7%; the viability, T/C under setting [35] was 67.4%; the viability, T/C (second compound 30 µM, first compound 3.16 µM) was 59.9%; the viability, T/C (second compound 30 µM, first compound 10 µM) was 37.9%.

For `CC(C)CC(NC(=O)CNC(=O)c1cc(Cl)ccc1Cl)B1OC(=O)CC(CC(=O)O)(C(=O)O)O1` (stereo unspecified) + CC(C)NCC(C(=O)N1CCN(c2ncnc3c2C(C)CC3O)CC1)c1ccc(Cl)cc1, the concentration for half-maximal inhibition (IC50) turned out to be 0.0493 µM under setting [1]; 0.0432 µM under setting [2]; 0.0458 µM under setting [3]; 0.0306 µM under setting [4]; 0.0175 µM under setting [5]. The viability, T/C is, setting by setting: (second compound 0.3 µM, first compound 0.000316 µM) 102%; (second compound 0.3 µM, first compound 0.001 µM) 104%; under setting [6], 108%; under setting [7], 99.4%; under setting [8], 68.4%; under setting [9], 20.7%. Also, the viability, T/C by setting is: (second compound 0.949 µM, first compound 0.000316 µM) 102%; (second compound 0.949 µM, first compound 0.001 µM) 99.8%; under setting [12], 102%; under setting [13], 98.8%; under setting [14], 60.3%; under setting [15], 22.4%. For the same molecule, the viability, T/C runs as follows: (second compound 3 µM, first compound 0.000316 µM) 91.8%; (second compound 3 µM, first compound 0.001 µM) 101%; under setting [18], 96.7%; under setting [19], 101%; under setting [20], 65.9%; under setting [21], 16.4%. Moreover, the viability, T/C reads like this: (second compound 9.49 µM, first compound 0.000316 µM) 86%; (second compound 9.49 µM, first compound 0.001 µM) 92.5%; under setting [24], 93.4%; under setting [25], 93.6%; under setting [26], 48.8%; under setting [27], 15.6%. In addition, the viability, T/C reads like this: (second compound 30 µM, first compound 0.000316 µM) 77.9%; (second compound 30 µM, first compound 0.001 µM) 91.7%; under setting [30], 88.2%; under setting [31], 76.2%; under setting [32], 22.2%; under setting [33], 5.95%.

For `CC(C)NCC(C(=O)N1CCN(c2ncnc3c2C(C)CC3O)CC1)c1ccc(Cl)cc1` (stereo unspecified), the viability, T/C was 97.1% [middle of 10 runs] (compound 0.3 µM); 93.7% [middle of 10 runs] (compound 0.949 µM); 91.4% [middle of 10 runs] (compound 3 µM); 84.7% [middle of 10 runs] (compound 9.49 µM); 83.7% [middle of 10 runs] (compound 30 µM). Further, the IC50 was greater than 30 µM (compound alone, run of 02/28/2020) and greater than 30 µM (compound alone, run of 03/19/2020).

As for `CC(C)CC(NC(=O)CNC(=O)c1cc(Cl)ccc1Cl)B1OC(=O)CC(CC(=O)O)(C(=O)O)O1` (stereo unspecified), the viability, T/C reads like this: (compound 0.000316 µM) 113% and 106%; (compound 0.001 µM) 112% and 104%; (compound 0.00316 µM) 103% and 102%; (compound 0.01 µM) 111% and 109%; (compound 0.0316 µM) 78.3% and 75.7%; (compound 0.1 µM) 23.4% and 22.6%. Besides, the IC50 (curve of compound) is 0.0572 µM and 0.0552 µM.
